Measured values from US9963448B2, “Bicyclic inhibitors of PAD4” (Padlock Therapeutics, Inc., priority 2015, dated 2018).
Where two headings read alike, the source gives them in different places.

Legend:
hPAD4 = hPAD4 (Homo sapiens, UniProt Q9UM07); test: hPAD4 RFMS (RapidFire mass spectrometry) PAD4 inhibition assay; assay type: biochemical; details: hPAD4 enzyme, RFMS readout;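 as to hPAD4 RFMS pIC50: grade E means pIC50 at most 4 and F means pIC50 4.0 to 5.0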
Experimental: (§1) Compounds of the present invention were assayed as inhibitors of PAD4 using the assay protocol described below.
(§2) Compound stock solutions were stored at RT. […] Final assay conditions were as follows:
(§3) Total incubation time: 65 mins at 37° C.
(§4) Stop solution: 40 μl 5% TCA in ACN
(§5) The compound numbers correspond to the compound numbers in Table 1. […] The term pIC50=−log(IC50). […] “NA” stands for “not assayed.”

mPAD4 = mPAD4 (Mus musculus, UniProt Q9Z183); test: mPAD4 RFMS PAD4 inhibition assay; assay type: biochemical; details: mPAD4, RFMS readout;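 as to mPAD4 RFMS pIC50: grade E means pIC50 at most 4 and F means pIC50 4.0 to 5.0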
mPAD4, sequence (Q9Z183 whole entry): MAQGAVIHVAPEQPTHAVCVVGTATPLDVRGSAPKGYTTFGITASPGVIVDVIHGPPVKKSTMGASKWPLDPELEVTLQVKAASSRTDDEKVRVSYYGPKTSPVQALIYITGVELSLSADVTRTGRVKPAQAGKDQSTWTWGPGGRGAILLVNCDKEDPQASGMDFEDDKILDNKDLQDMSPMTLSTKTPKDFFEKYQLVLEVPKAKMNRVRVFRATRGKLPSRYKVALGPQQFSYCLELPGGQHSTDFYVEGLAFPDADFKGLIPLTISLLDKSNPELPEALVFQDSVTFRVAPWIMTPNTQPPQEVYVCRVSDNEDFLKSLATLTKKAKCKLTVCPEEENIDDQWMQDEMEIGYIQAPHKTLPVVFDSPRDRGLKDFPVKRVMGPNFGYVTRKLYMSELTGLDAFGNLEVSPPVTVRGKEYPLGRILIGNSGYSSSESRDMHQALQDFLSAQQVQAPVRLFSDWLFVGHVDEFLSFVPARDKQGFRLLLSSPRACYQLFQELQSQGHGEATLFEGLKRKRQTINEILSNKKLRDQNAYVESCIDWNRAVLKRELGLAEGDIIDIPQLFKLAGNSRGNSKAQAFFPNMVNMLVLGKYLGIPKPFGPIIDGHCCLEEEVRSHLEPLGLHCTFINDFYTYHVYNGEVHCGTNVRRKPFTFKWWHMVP
Experimental: as §1, §2, §3, §4, §5

[1] = pIC50=−log(IC50), read-out: hPAD4 RFMS pIC50 (converted)
[2] = pIC50=−log(IC50), read-out: mPAD4 RFMS pIC50 (converted)

hPAD4, sequence (Q9UM07 whole entry): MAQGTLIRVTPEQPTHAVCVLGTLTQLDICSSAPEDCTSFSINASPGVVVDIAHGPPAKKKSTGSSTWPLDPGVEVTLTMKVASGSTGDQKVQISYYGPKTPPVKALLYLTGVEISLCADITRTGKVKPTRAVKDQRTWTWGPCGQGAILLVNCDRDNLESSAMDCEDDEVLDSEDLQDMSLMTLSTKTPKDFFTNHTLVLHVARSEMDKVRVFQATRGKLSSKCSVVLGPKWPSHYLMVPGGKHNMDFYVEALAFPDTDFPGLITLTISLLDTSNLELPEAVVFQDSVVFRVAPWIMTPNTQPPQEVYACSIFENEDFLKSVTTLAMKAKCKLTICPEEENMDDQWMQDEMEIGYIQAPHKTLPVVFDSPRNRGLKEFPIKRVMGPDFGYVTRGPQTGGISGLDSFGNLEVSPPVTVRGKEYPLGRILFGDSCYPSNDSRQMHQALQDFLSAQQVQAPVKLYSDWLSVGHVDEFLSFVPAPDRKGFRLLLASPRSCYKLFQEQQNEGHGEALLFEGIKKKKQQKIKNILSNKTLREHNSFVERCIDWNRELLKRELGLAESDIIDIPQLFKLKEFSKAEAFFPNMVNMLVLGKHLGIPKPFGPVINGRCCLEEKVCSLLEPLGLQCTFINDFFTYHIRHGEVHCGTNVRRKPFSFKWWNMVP

Which results are given for `COc1cc(C(=O)N2C[C@H]3CC[C@@H]2[C@@H]3N)cc2nc(-c3cc4cccnc4n3CC3CC3)n(C[C@@H]3CCOC3)c12` [Compound I-232]?
IC50 (hPAD4; [1]): < 1000 nM; IC50 (hPAD4; read-out: hPAD4 RFMS IC50): < 1000 nM; IC50 (mPAD4; [2]): < 1000 nM; IC50 (mPAD4; read-out: mPAD4 RFMS IC50): < 1000 nM

What does the source list for `COc1cc(C(=O)N2C[C@H]3CC[C@@H]2[C@@H]3N)cc2nc(-c3cc4cccnc4n3CC3CC3)n(CC(F)F)c12` [Compound I-233]?
IC50 (hPAD4; [1]): < 1000 nM; IC50 (hPAD4; read-out: hPAD4 RFMS IC50): < 1000 nM; IC50 (mPAD4; [2]): < 1000 nM; IC50 (mPAD4; read-out: mPAD4 RFMS IC50): < 1000 nM

Which “hPAD4 RFMS pIC50” value (hPAD4; pIC50=−log(IC50)) does the source give for `COc1cc(C(=O)N2C[C@H]3CC[C@@H]2[C@@H]3N)cc2nc(-c3cc4cccnc4n3CC3CC3)n(CC(F)F)c12` [Compound I-234] here?
The value was “H (pIC50 of ≥6)”.

What about the IC50 (hPAD4; read-out: hPAD4 RFMS IC50) of the same compound?
The IC50 was less than 1000 nM.

And the IC50 (mPAD4; [2])?
Its IC50 is 1000 to 10000 nM.

What about the IC50 (mPAD4; read-out: mPAD4 RFMS IC50) of the same compound?
Its IC50 is 1000 to 5000 nM.

Which IC50 (hPAD4; [1]) does the source give for `COc1cc(C(=O)N2C[C@H]3CC[C@@H]2[C@@H]3N)cc2nc(-c3cc4cccnc4n3CC3CC3)n(CCSC)c12` [Compound I-235] here?
The IC50 was less than 1000 nM.

And the IC50 (hPAD4; read-out: hPAD4 RFMS IC50)?
Its IC50 is less than 1000 nM.

And the IC50 (mPAD4; [2])?
Its IC50 is less than 1000 nM.

And the IC50 (mPAD4; read-out: mPAD4 RFMS IC50)?
Its IC50 is less than 1000 nM.

How did the IC50 (hPAD4; [1]) turn out when `COc1cc(C(=O)N2C[C@H]3CC[C@@H]2[C@@H]3N)cc2nc(-c3cc4cccnc4n3CC3CC3)n(C[C@H]3C[C@@H](OC)C3)c12` [Compound I-236] was run?
Its IC50 is less than 1000 nM.

What about the IC50 (hPAD4; read-out: hPAD4 RFMS IC50) of the same compound?
Its IC50 is less than 1000 nM.

And the IC50 (mPAD4; [2])?
Its IC50 is less than 1000 nM.

What about the IC50 (mPAD4; read-out: mPAD4 RFMS IC50) of the same compound?
Its IC50 is less than 1000 nM.

How did the IC50 (hPAD4; [1]) turn out when `CN[C@@H]1[C@@H]2CC[C@H]1N(C(=O)c1cc(OC)c3c(c1)nc(-c1cc4cccnc4n1CC1CC1)n3C)C2` [Compound I-237, (1R,4R,7R)-2-{2-[1-(Cyclopropylmethyl)-1H-pyrrolo[2,3-b]pyridin-2-yl]-7-methoxy-1-methyl-1H-1,3-benzodiazole-5-carbonyl}-N-methyl-2-azabicyclo[2.2.1]heptan-7-amine] was run?
The IC50 was 10000 to 100000 nM.

What about the IC50 (hPAD4; read-out: hPAD4 RFMS IC50) of the same compound?
Its IC50 is greater than 10000 nM.

What about the IC50 (mPAD4; [2]) of the same compound?
The IC50 was 10000 to 100000 nM.

What about the IC50 (mPAD4; read-out: mPAD4 RFMS IC50) of the same compound?
Its IC50 is greater than 10000 nM.

How did the IC50 (hPAD4; [1]) turn out when `[2H]C([2H])([2H])OC1(C)CC(Cn2c(-c3cc4cccnc4n3CC3CC3)nc3cc(C(=O)N4C[C@H]5CC[C@@H]4[C@@H]5N)cc(OC)c32)C1` (stereo partly drawn) [Compound I-238, (1R,4R,7R)-2-{2-[1-(cyclopropylmethyl)-1H-pyrrolo[2,3-b]pyridin-2-yl]-7-methoxy-1-{[3-(^2H3)methoxy-3-methylcyclobutyl]methyl}-1H-1,3-benzodiazole-5-carbonyl}-2-azabicyclo[2.2.1]heptan-7-amine] was run?
The IC50 was less than 1000 nM.

What about the IC50 (hPAD4; read-out: hPAD4 RFMS IC50) of the same compound?
The IC50 was less than 1000 nM.

And the IC50 (mPAD4; [2])?
Its IC50 is less than 1000 nM.

What about the IC50 (mPAD4; read-out: mPAD4 RFMS IC50) of the same compound?
Its IC50 is less than 1000 nM.
